Data taken from patent US12577223B2, “Processes for preparing 2-(4-chlorophenyl)-n-((2-(2,6-dioxopiperidin-3-yl)-1-oxoisoindolin-5-yl)methyl)-2,2-difluoroacetamide” (Celgene Corporation, priority 2019, dated 2026).

Assay: dynamic vapor sorption (DVS) analysis
Format: physicochemical
Conditions: relative humidity increased from about 0% to about 90% RH
Source text: FIG. 5 provides a DVS isotherm plot of polymorph Form C of 2-(4-chlorophenyl)-N-((2-(2,6-dioxopiperidin-3-yl)-1-oxoisoindolin-5-yl)methyl)-2,2-difluoroacetamide.
In certain embodiments, polymorph Form C is characterized by dynamic vapor sorption analysis. A representative dynamic vapor sorption (DVS) isotherm plot is shown in
FIG. 5. […] In certain embodiments, polymorph Form C comprises less than 0.1% water as determined in a coulometric Karl Fischer (KF) titrator equipped with an oven sample processor set at 225° C.

With O=C1CCC(N2Cc3cc(CNC(=O)C(F)(F)c4ccc(Cl)cc4)ccc3C2=O)C(=O)N1 (stereo not shown) [polymorph Form C, 2-(4-chlorophenyl)-N-((2-(2,6-dioxopiperidin-3-yl)-1-oxoisoindolin-5-yl)methyl)-2,2-difluoroacetamide] the water uptake was “about 0.6 % w/w”.
